Laboratory results published in patent EP0497740B1, “Benzyloxyphenyl derivatives” (SANDOZ LTD., priority 1991, dated 1992).
pIC50: −log10 of the molar value.

Key:
HACAT keratinocytes = experiment: Inhibition of TGFa- or EGF-specific proliferation of HACAT keratinocytes (3H-thymidine incorporation); type: cell-based; conditions: test 1: HaCaT cells stimulated with recombinant human TGFa or EGF, two days
Procedure: 1. Inhibition of TGFa- or EGF-specific proliferation of HACAT keratinocytes:
The spontaneously immortalized aneuploid human keratinocyte HaCaT cell line, which has a transformed phenotype in vitro but remains non-tumorigenic, is grown in DMEM H21 medium supplemented with 5 % FCS and 2.5 % glutamine. 5 ml aliquots of a cell suspension adjusted to 2 x 10^5 cells/ml are seeded into 50 ml culture flasks and the cells are cultured for 2 to 3 days in DMEM medium supplemented with 5 % FCS. When 90-100 % confluence is attained cells are trypsinized, washed, suspended in KBM medium supplemented with 0.2 % dialyzed FCS (Gibco) and Ca^++ to a final concentration of 0.06 mM, and 2 x 10^4 cells are seeded into 96 wells cell culture plates. Proliferation is stimulated with recombinant human TGFa or EGF (reconstituted in 0.1 M acetic acid) at various concentrations in the presence of inhibitors. Cells are grown for two days at 37 / 5 % CO2. During the last 16 hours incorporation of ^3H-thymidine (1 µ.Ci/well) is performed. Cells are washed with ice-cold PBSdef. 3 times and trichloroacetic acid twice, solubilized in 100 µl of 0.1 N NaOH containing 1 % SDS, and radioactivity is counted. Inhibition of cell proliferation is expressed as % of the control.

[1] = test system: oxazolone-induced allergic contact dermatitis; experiment: Inhibition of oxazolone-induced allergic contact dermatitis in the mouse (pinnal swelling, topical application); type: in vivo; conditions: test 3: mouse, two applications, concentration of 0.4 %, relative to vehicle (ethanol/acetone 7:3)
Procedure: 3. Inhibition of oxazolone-induced allergic contact dermatitis in the mouse
Sensitization is induced by a single application of 2 % 6 oxazolone (10 µl) onto the abdominal skin of mice (8 animals per group). Hypersensitivity reaction causing pinnal swelling is elicited by a second exposure to 2 % oxazolone applied to one pinna of each animal after 8 days.
Inhibition of pinnal swelling is achieved by two topical applications of test compound (30 minutes before and after elicitation of the challenge reaction). Efficacy is determined by the difference of pinnal weights of animals treated with the drug and with the vehicle (ethanol/acetone 7:3), respectively, and expressed in % of swelling with vehicle application alone.

| Structure (SMILES) | pIC50 (HACAT keratinocytes) | pIC50 (HACAT keratinocytes; Homo sapiens, HaCaT) | inhibition of swelling [1] [%] |
| --- | --- | --- | --- |
| N#CC(=Cc1ccc(O)c(O)c1)C(N)=S [AG213] | 4.30 to 5.30 | – | – |
| O=c1c(-c2ccc(O)cc2)coc2cc(O)cc(O)c12 [genistein] | 5.30 | 4.30 to 5.30 | – |
| COC(=O)c1cc(OCc2cc(OC)ccc2OC)ccc1O [Example 1, 5-(2,5-Dimethoxybenzyloxy)-2-hydroxybenzoic acid methyl ester] | – | > 6.00 | 46 |
